Results reported in patent US20140329766A1, “Prophylactic Compositions for Management of Microbial Infections in Patients with Brain Injury” (UTI LIMITED PARTNERSHIP, priority 2011, published 2014).

Assays:
[1] = Alanine transaminase (ALT) activity assay in peripheral blood; format: in vivo; conditions: post-ischemic mice after the single dose of α-GalCer (FIG. 45B)
Protocol: Separate groups of control sham-operated mice received a single-dose administration of the α-GalCer compositions following the procedures, both as outlined in Example 7 (one composition/one group of four mice). Also, separate groups of post-ischemic mice received a single-dose administration of the α-GalCer compositions about 2 h after the MCAO events, following the procedures as outlined in Example 7 (one composition/one group of four mice). All animals were euthenized 24 h after MCAO events, and their peripheral blood was harvested. The levels of alanine transaminase (ALT) in the samples were determined with an ALT activity assay following the manufacturer's instructions to determine the rates of oxidation of NADH to NAD^+.

[2] = Lung injury assessment (MPO activity, lung edema); format: in vivo; conditions: post-ischemic mice 24 h after MCAO
Protocol: The lungs of anaesthetized mice were removed after specified period of reperfusion. For determination of lung myeloperoxidase (MPO) activity (an indicator of lung inflammation), samples of lungs were removed, weighed, immediately frozen in liquid nitrogen and stored at −80° C. until the MPO activity assay was performed. Myeloperoxidase activity was measured using an assay previously described (Krawisz et al., 1984) and modified to be used in a 96-well microtitre plate. Values are expressed as units of MPO activity per milligram of lung tissue (U/mg tissue). For determination of lung fluid content, the left lobes were dissected gently dried using a blotting paper, and weighed. The tissues were dried at 55° C. for 72 h and reweighed. The percentage of lung weight attributed to fluid was calculated as an indicator of lung edema formation.
The lung tissues were removed at 24 h post-MCAO and assessed for: (i) myeloperoxidase activity as a measure of neutrophil infiltration, and (ii) for lung edema.

## CCCCCCCCCCCCCCCCCCCCCCCCCCC(=O)N[C@@H](COC1OC(CO)C(O)C(O)C1O)[C@H](O)[C@H](O)CCCCCCCCCCCCCC (stereo partly drawn) [α-GalCer, α-galactosylceramide]
[1]
  liver enzyme (ALT) levels within the blood: no significant difference
[2]; 2 μg/mouse i.v. 2 h after MCAO (FIG. 43B)
  stroke-induced neutrophil pulmonary influx (MPO activity in lung): reduced
[2]; 2 μg/mouse i.v. 2 h after MCAO (FIG. 43C)
  lung edema: reduced
